Test results: patent US7893068B2, “Physiologically active substances” (Mercian Corporation, priority 2002, dated 2011)

Legend:
[1] = Body weight loss (acute toxicity) in the WiDr tumor model; format: in vivo, nude mice; settings: intravenous 5 consecutive days, body weight relative to Day 1
Source text: (§1) In order to study solid tumor growth inhibitory activities of the compounds of the formula (I) in vivo, WiDr human colon cancer cells were implanted subcutaneously into the flanks of nude mice. […]. The animals were grouped so that the average of the volumes of the respective groups became uniform, when it reached about 100 mm^3. Control group was made up of 10 mice and 11107D-administering groups were made up of 5 mice. The derivatives were administered for the administering groups for 5 consecutive days by intravenous injection so as to be any of 0.625 mg, 1.25 mg, 2.5 mg, 5 mg and 10 mg/kg/day, and a vehicle was administered to the control group. The tumor volumes on Day 15 were measured, and relative tumor volume ratios (T/C %) were determined setting the tumor volume of the control group as 100%. The body weights on Day 1, Day 5, Day 8, Day 12 and Day 15 (or 16) were measured, and relative body weight variations were determined setting the body weight on Day 1 as 100%. The relative body weight ratios on the day where the body weight reached the minimum were defined as the minimum relative weight ratios and are shown in Table 3.

[2] = Stability in an aqueous solution (HPLC residual ratio); settings: for Peak area (mAU × sec) after 24 hours / The residual ratios (%): Britton-Robinson's buffer pH 7, 25° C., 24 hours; for Peak area (mAU × sec) initial: Britton-Robinson's buffer pH 7, before incubation
Protocol: The compounds of the formula (I) were dissolved in DMSO in concentrations of 10 to 20 mM, and these were diluted about 500 folds with Britton-Robinson's buffer solution of pH 7. Each of the solutions as sample solutions was incubated at 25° C. for 24 hours.
The sample solutions were analyzed by high performance liquid chromatography before and after incubation, and the residual ratios of the tested substances in the sample solutions after incubation were determined from the peak areas of the obtained chromatograms.

VEGF promoter = test: VEGF transcription-suppressing activity (VEGF promoter-PLAP reporter, U251/1-8 cells, hypoxia); format: cell-based; settings: Homo sapiens, U-251, 18 h, read-out: VEGF transcription-suppressing activities (IC50: nM)
Source text: In order to prepare reporter system reflecting transcription from VEGF promoter, VEGF promoter sequence was cloned, and inserted in secretory alkaline phosphatase (PLAP) vector to construct reporter vector.
In order to obtain the promoter region of human VEGF, VEGF genomic DNA was cloned from phage library. PCR primers having the sequences described in Sequence Numbers 1 and 2 were designed based on VEGF cDNA (GenBank accession number: X62568) and a fragment having about 340 bp was obtained by carrying out PCR. Human genomic phage library (Human genomic library, Clontech Co.) was screened using this as a probe to obtain VEGF genomic DNA. The DNA was digested by EcoRI, and the resultant fragments were inserted in the EcoRI site of pUC18. Finally, pUC18-VEGFA containing about 5.4 kb of VEGF 5′ flanking region was obtained. The pUC18-VEGFA was digested by KpnI/NheI, VEGF promoter region of about 2.3 kb obtained was inserted in the multi cloning site KpnI/NheI of secretory alkaline phosphatase (PLAP) vector (Goto et al, Mol. Pharmacol., 49, 860-873, 1996), and thus, VEGF-PLAP vector was constructed.
The above-mentioned VEGF-PLAP vector was transfected in the U251 cell cultured in the DULBECCO-modified eagle medium (DMEM; manufactured by SIGMA Co., Ltd.) containing 10% fetal calf serum, and the cells were cultured in the presence of 1 mg/mL G418 (Merck Co.) to establish G418 resistant stable clone (U251/1-8 cell).
It was confirmed that U251/1-8 cell secreted PLAP under hypoxic condition (2% O2 incubator) in the same manner as in the report (Cell. Mol. Biol. Res. 40, 35-39, 1994) and was a reporter system reflecting the transcription from VEGF promoter. The screening of the compound suppressing VEGF production which was induced by hypoxic stimulation was carried out below using the clone.
In order to remove the influence of alkaline phosphates in serum, U251/1-8 cells were rinsed twice with the adequate amount of PBS (Phosphate buffered saline), diluted in the DMEM medium containing 10% of serum in which alkaline phosphates was inactivated by the treatment of 65° C. for 20 min., and dispensed in 96-well plates by 4×10^4 cells/180 μL.
After culturing at 37° C. overnight in a CO2 incubator (5% CO2), 20 μL of the above-mentioned incubation solution containing the test compound diluted with 3-fold succession was added, and then they were incubated in a hypoxic (2% […]) incubator for 18 hours. With respect to the PLAP activity in the culture supernatants, 10 μL of the supernatants was added to 50 μL of 0.28 M Na2CO3—NaHCO3 buffer solution (pH 10.0, 8.0 mM MgSO4), and finally 50 μL of alkaline phosphatase substrate (LUMISTEIN, Genomescience Co.) was added. After reacting for one hour, the alkaline phosphatase activity of the PLAP was measured by detecting the chemical luminescence by a micro plate reader (Perkin-Elmer Co.). The PLAP activity under normoxia was set as 0%, the PLAP activity of cell which was treated under hypoxia was set as 100%, and the concentration suppressing the PLAP activity by 50% was set as the IC50 value of PLAP. The IC50 values of 11107D derivatives shown in Examples were measured, and the IC50 values of representative 11107D derivatives are shown in Table 1.

[3] = system: WiDr human colon cancer cells; test: Solid tumor growth inhibitory activities, WiDr human colon tumor model in nude mice; format: in vivo; settings: Mus musculus, iv, 360 h, read-out: Growth inhibitory activities in the WiDr human solid tumor model (T/C %)
Source text: as §1

[4] = system: WiDr human colon cancer cells; test: Growth inhibitory activities on WiDr human colon cancer cells (MTT); format: cell-based; settings: 72 h, three days incubation
Protocol: WiDr human colon cancer cells cultured in DULBECCO-modified eagle medium (DMEM; manufactured by SIGMA Co., Ltd.) containing 10% fetal calf serum, penicillin (100 unit/mL) and streptomycin (100 μg/mL) were dispensed in 96-well plates by 2×10^3 cells/well. After culturing overnight in a CO2 incubator, 20 μL of the above-mentioned incubation solution containing the test compound diluted with 3-fold succession was added, followed by incubation. After three days, 50 μL of 3.3 mg/mL MTT solution was added, followed by culturing for further one hour. Then, formazan formed by the reduction by the action of living cells was extracted with 100 μL of DMSO, the absorbance (A540/A660) was determined and was set as the index of the number of living cells.
The concentrations of the compounds of the formula (I) at which the growth of WiDr human colon cancer cells are inhibited 50% were determined.

[5] = Physico-chemical properties: solubility; format: physicochemical
Protocol: The physico-chemical properties of 11107D are shown below. The structure of 11107D was determined as shown below.

P388 mouse leukemia cell [6] = settings: cited from earlier work
P388 mouse leukemia cell [7] = settings: P388, RPM-1640 medium; cited from earlier work
[8] = system: L-1210 mouse leukemia cell; settings: L-1210, RPM-1640 medium; cited from earlier work
[9] = system: HL-60 human leukemia cell; settings: HL-60, RPM-1640 medium; cited from earlier work

Row | Structure (SMILES) | the minimum relative weight ratios ([1]; Dose 0.625 mg/kg) | Peak area (mAU × sec) after 24 hours [2] [mAU × sec] | The residual ratios (%) [2] [%] | Peak area (mAU × sec) initial [2] [mAU × sec] | IC50 (VEGF promoter) [nM] | response vs control in vivo at 0.625 mg/kg [3] [%] | IC50 [4] [nM] | the minimum relative weight ratios ([1]; Dose 2.5 mg/kg) | response vs control in vivo at 2.5 mg/kg [3] [%] | Stability in an aqueous solution [2] | Solubility in organic solvents ([5]; dimethyl sulfoxide, pyridine, methanol and acetone) | Solubility in water ([5]; water) | antitumor activities in an in vivo experiment (P388 mouse leukemia cell [6]) | in vitro cell growth inhibitory activities (P388 mouse leukemia cell [7]) | in vitro cell growth inhibitory activities [8] | in vitro cell growth inhibitory activities [9]
1 | CCC(O)C(C)C1OC1CC(C)(O)/C=C/C=C(\C)C1OC(=O)CC(O)CCC(C)(OC)C(OC(=O)N2CCC(N3CCCCC3)CC2)/C=C/C1C (stereo not shown) [Compound 109, (8E,12E,14E)-3,16,21-Trihydroxy-6-methoxy-6,10,12,16,20-pentamethyl-7-((4-(piperidin-1-yl)piperidin-1-yl)carbonyl)oxy-18,19-epoxytricosa-8,12,14-trien-11-olide] | 0.89 | 2111 | 94.9 | 2224 | 3.3 | 36 | 1.5 |  |  |  |  |  |  |  |  | 
2 | CCC(OC)C(C)C1OC1CC(C)(O)/C=C/C=C(\C)C1OC(=O)CC(O)CCC(C)(O)C(OC(=O)N2CCN(C)CC2)/C=C/C1C (stereo not shown) [Compound 131, (8E,12E,14E)-3,6,16-Trihydroxy-21-methoxy-6,10,12,16,20-pentamethyl-7-((4-methylpiperazin-1-yl)carbonyl)oxy-18,19-epoxytricosa-8,12,14-trien-11-olide] |  | 157 | 93.2 | 168 | 1.7 |  | 0.7 | 0.83 | 28 |  |  |  |  |  |  | 
3 | CCC(O)C(C)C1OC1CC(C)(O)/C=C/C=C(\C)C1OC(=O)CC(O)CCC(C)(O)C(OC(C)=O)/C=C/C1C (stereo not shown) [Compound 11107D, (8E,12E,14E)-7-acetoxy-3,6,16,21-tetrahydroxy-6,10,12,16,20-pentamethyl-18,19-epoxytricosa-8,12,14-trien-11-olide] |  | 3817 | 95.6 | 3994 |  |  |  |  |  | stable even in an aqueous solution | soluble | slightly soluble |  |  |  | 
4 | CCC(OC)C(C)C1OC1C(O)C(C)/C=C/C=C(\C)C1OC(=O)CC(O)CCC(C)(O)C(OC(C)=O)/C=C/C1C (stereo not shown) [FD895, reference compound] |  | 993 | 83 | 1197 |  |  |  |  |  | unstable in an aqueous solution |  |  | did not show antitumor activities | has in vitro cell growth inhibitory activities | has in vitro cell growth inhibitory activities | has in vitro cell growth inhibitory activities
